From BindingDB's records for doi:10.1016/j.bmcl.2012.03.007 (Bristol-Myers Squibb, 2012)

assay: Antagonist activity at CCR2 in human PBMC assessed as inhibition of MCP1-induced chemotaxis

Point of comparison: `CCC[C@H](O)[C@H](CNCc1ccc(C)cc1C)NC(=O)CNC(=O)c1cc(C(F)(F)F)ccc1NC(=O)N1CCNCC1`, IC50 10 nM. Against it:
- CCC[C@H](O)[C@H](CNCc1ccc(C)cc1C)NC(=O)CNC(=O)c1cc(N)cc(C(F)(F)F)c1 — 2-fold higher, 20 nM
- CCC[C@H](O)[C@H](CNCc1ccc(C)cc1C)NC(=O)CNC(=O)c1cc(C(F)(F)F)ccc1N — 3.2-fold higher, 32 nM
- CCC[C@H](O)[C@H](CNCc1ccc(C)cc1C)NC(=O)CNC(=O)c1cc(C(F)(F)F)ccc1NC(=O)OC(C)(C)C — 1.7-fold higher, 17 nM
- CCC[C@H](O)[C@H](CNCc1ccc(C)cc1C)NC(=O)CNC(=O)c1cc(C(F)(F)F)ccc1NC(=O)NC — 2-fold lower, 5 nM
- CCC[C@H](O)[C@H](CNCc1ccc(C)cc1C)NC(=O)CNC(=O)c1cc(C(F)(F)F)ccc1NC(=O)NCC — 2.4-fold higher, 24 nM
- CCC[C@H](O)[C@H](CNCc1ccc(C)cc1C)NC(=O)CNC(=O)c1cc(C(F)(F)F)ccc1NC(=O)N1CCC1 — 2.3-fold lower, 4.3 nM
- CCC[C@H](O)[C@H](CNCc1ccc(C)cc1C)NC(=O)CNC(=O)c1cc(C(F)(F)F)ccc1NC(=O)N1CCCC1 — 1.9-fold lower, 5.2 nM
- CCC[C@H](O)[C@H](CNCc1ccc(C)cc1C)NC(=O)CNC(=O)c1cc(C(F)(F)F)ccc1NC(=O)N1CCOCC1 — within 1.5-fold, 13 nM
- CCC[C@H](O)[C@H](CNCc1ccc(C)cc1C)NC(=O)CNC(=O)c1cc(C(F)(F)F)ccc1NC(C)C — within 1.5-fold, 9 nM
- CCC[C@H](O)[C@H](CNCc1ccc(C)cc1C)NC(=O)CNC(=O)c1cc(C(F)(F)F)ccc1NC(C)(C)C — 3.3-fold higher, 33 nM
- CCC[C@H](O)[C@H](CNCc1ccc(C)cc1C)NC(=O)CNC(=O)c1cc(C(F)(F)F)ccc1NCc1ccccc1 — within 1.5-fold, 7.2 nM
- CCC[C@H](O)[C@H](CNCc1ccc(C)cc1C)NC(=O)CNc1n[nH]c2ccc(C(F)(F)F)cc12 — 7.4-fold higher, 74 nM
- CCC[C@H](O)[C@H](CNCc1ccc(C)cc1C)NC(=O)CC(=O)Nc1cccc(C(F)(F)F)c1 — 8.1-fold higher, 81 nM
- CCC[C@H](O)[C@H](CNCc1ccc(C)cc1C)NC(=O)CC(=O)Nc1cc(N)cc(C(F)(F)F)c1 — within 1.5-fold, 14 nM
- CCC[C@H](O)[C@H](CNCc1ccc(C)cc1C)NC(=O)CC(=O)Nc1cc(NC)cc(C(F)(F)F)c1 — 2.3-fold higher, 23 nM
- CCC[C@H](O)[C@H](CNCc1ccc(C)cc1C)NC(=O)CC(=O)Nc1cc(NCC)cc(C(F)(F)F)c1 — within 1.5-fold, 12 nM

assay: Antagonist activity at CCR2 in mouse monocytes assessed as inhibition of MCP1-induced chemotaxis

`CCC[C@H](O)[C@H](CNCc1ccc(C)cc1C)NC(=O)CNC(=O)c1cc(C(F)(F)F)ccc1NC(=O)NCC` gave an IC50 of 4 nM.
